# Laboratory results: patent US7871765B2, “Composition having antitumor effect” (priority 2004, dated 2011)
# How the values were obtained:
# MB49 cells [1] = assay: MB49 cell-inoculated mouse model (intradermal), tumor volume; type: in vivo
# Excerpt: This experimental model can be prepared in accordance with, for example, a method described in Anticancer Res., 2004, 24(4):2225-30, and the like.
# [2] = tested on: MB49 (transitional epithelial cancer) cells; assay: Adriamycin sensitivity of MB49 cells, WST-8 assay; type: cell-based; conditions: 48 hours
# Procedure: After 48 hours of cultivation, the supernatant was removed by WST-8 assay, 100 μl of a cell counting kit solution, previously diluted 10 fold with RPMI medium, was added, and the plate was allowed to stand at 37° C. for 1.5 hours. Absorbance at 450 nm was determined using a microplate reader. Assuming the absorbance of a sample of MB49 cells only to be 100% survival rate, the survival rates at various concentrations were calculated.
# MB49 cells [3] = assay: Concurrent administration of MB49 cells, HVJ-E and ADM into the bladder; type: in vivo, mouse; conditions: two weeks
# Procedure: Three 6-week-old female C57BL/6Cr Slc mice per group were anesthetized by administering a mixture of 90 μl of ketamine (50 mg) and 10 μl of xylazine (2% solution) to the left femoral muscle, a 24G catheter was inserted into the bladder, 100 μl of each of the following sample solutions was administered using a 1-ml syringe, and the catheter was indwelled for 1 hour.
# The groups established are as follows:
# The number of MB49 cells administered was 5×10^6 cells. After adjustment to a final volume of 100 μl, each solution was administered into the bladder. Two weeks later, the bladder was extirpated, and sections were prepared and stained with HE.
# CT-26 cells = assay: CTL assay using radiolabeled chromium with splenocytes of treated mice; type: cell-based, mouse; conditions: E/T ratio 80; CT-26 inoculated mice; HVJ-E/BLM 3 dosing where given
# Procedure: To determine whether or not the antitumor immunity effect observed in the previous study was due to the induction of CT26 cell-specific antitumor immunity, splenocytes recovered from animals were stimulated with CT26 cells, and a CTL assay using radiolabeled chromium was performed to determine whether or not CT26-specific antitumor immunity had been induced.
# In this study, (1) a CT-26 cell non-inoculation group, (2) a CT-26 cell-alone inoculation group, (3) a CT-26 cell inoculation+CDDP administration group, and (4) a CT-26 cell inoculation+CDDP+HVJ-E/BLM 3 dosing group were established and tested.
# The spleen was extirpated from each anesthetized animal and recovered in a Petri dish (6 cm in diameter) containing 3 ml of RPMI solution. The spleen tissue was squashed between the frosted portions of two sterile glass slides, splenocytes were separated from the coat to the maximum possible extent, and the debris was removed through meshes. After 7 ml of PRMI solution was added, the cells were centrifuged at 1200 rpm for 10 minutes, and the supernatant was removed. […] The cells obtained from this operation were counted. […]
# Actual CTL assay was performed with the ratio of effector cells (E) and target cells (T), E/T ratio, set at 80, […] 40, 20, 10, and 5. In this operation, 100 μl of target cells (1×10^5 cells/ml) were added to make a total quantity of 200 μl. […]
# [4] = tested on: CT-26 mouse colon cancer cells; assay: Antitumor effect of cisplatin (CDDP) and HVJ-E in combination, CT-26 tumors; type: in vivo; conditions: HVJ-E alone, CDDP 1 mg/kg, physiological saline
# Procedure: CT-26 mouse colon cancer cells were intradermally inoculated into the backs of BALB/c mice at 5×10^6 cells/head. Five days after the inoculation, treatment with HVJ-E and CDDP was started in the following animal groups. For each animal group, tumor volume was calculated as major diameter×minor diameter×minor diameter/2.
# • #1: Physiological saline group • #2: HVJ-E alone • #3: CDDP 1 mg/kg • #4: CDDP 3 mg/kg • #5: CDDP 1 mg/kg+HVJ-E (5,000 HAU) • #6: CDDP 3 mg/kg+HVJ-E (5,000 HAU) • (n=5 or 6 for each group) (Results)
# CT-26 tumor tissue = assay: HE and CD-4/CD-8 immunohistological staining of tumor tissue; type: in vivo, mouse; conditions: 9 days after CDDP administration; single dosing
# Excerpt: (Study 5) To evaluate the infiltration of CD-4, CD-8, neutrophils, macrophage and the like in the tumor tissues examined in the study of the antitumor effect of the antitumor immunity, the following test groups were established, and tumor tissues were extirpated 9 days after administration of CDDP and subjected to immunohistological staining.
# 2-9) The tumor tissue was frozen in liquid nitrogen in preparation for staining the tumor tissue. The tumor tissue was cut into sections 8 μm in thickness using a cryostat. The tissue sections were fixed in −20° C. cold acetone for 15 minutes. After the sections were washed with water, endogenous avidin-biotin blocking was performed, and the sections were washed with water. The sample was reacted with normal rabbit serum and 50-fold diluted primary antibody [anti-mouse CD8a rat antibody (Ly-Z; Pharmingen) or anti-mouse CD4a rat antibody (L3T4; Pharmingen)] at 4° C. overnight. After the sample was washed with 7.5 mM Tris buffer solution (pH 7.5), it was reacted with 300-fold diluted anti-rat biotin-labeled rabbit Ig (DAKO) for 30 minutes. After the sample was washed with 9.5 mM Tris buffer solution (pH 7.5), it was reacted with 100-fold diluted streptoavidin for 30 minutes. After the sample was washed with 11.5 mM Tris buffer solution (pH 7.5), a color was developed with Fast Red. […]
# [5] = tested on: CT-26 cells derived from mouse colon cancer; assay: Antitumor effect on transplanted CT-26 tumors in cancer-bearing mice (tumor volume, remission); type: in vivo; conditions: Study 1, 21 days after treatment, single dose; for mean tumor volume: mean of five animals, BLM 6.5 μg/tumor intratumoral, CDDP 0.2 mg/body i.p.
# Procedure: CT-26 cells derived from mouse colon cancer (5×10^6 cells) were intradermally transplanted to the backs of 8-week-old male BALB/cAnNCrj mice to yield cancer-bearing mice. Five days after the transplantation, 0.2 mg/body Platocin Injection (cisplatin, CDDP) was intraperitoneally administered to animals wherein the tumor diameter (major diameter) had reached about 5 mm. Following this administration, HVJ-E containing or not containing an anticancer drug (bleomycin hydrochloride [BLM]: Nippon Kayaku Co., Ltd.) and the like were administered into the tumor in a single dose (on the day after administration of cisplatin) or in multiple doses (3 times: 1, 5, and 8 days after administration of cisplatin). Tumor diameters, survival curves, and immune reactions in the tumor tissue were evaluated.
# (Study 1) The groups described below were established, and the antitumor effects of treatment for transplanted tumors was evaluated.
# For modeling, (1) a control group, (2) an HVJ-E group, (3) a BLM-alone group, (4) an HVJ-E/BLM group, (5) a CDDP-alone group, and (6) a CDDP HVJ-E/BLM single dosing group were established; tumor volumes were measured 21 days after each treatment, and the influence on the antitumor effect was examined.
# (Study 2) In an attempt to further enhance the antitumor effect of the (single) treatment by single dosing of CDDP HVJ-E/BLM given in Study 1, HVJ-E/BLM was administered in multiple doses (3 times) (Study 2-1). […] (Study 2-1)
# Tumor volumes were examined 21 days after treatment for (1) a control group, (2) a CDDP HVJ-E/BLM single dosing group (single treatment), and (3) a CDDP HVJ-E/BLM 3 dosing group.
# After completion of the quarantine and habituation, animals were shaven with clippers. The tumor cell suspension at 100 μL/site (5×10^6 cells/body) was administered intradermally to the backs of 59 mice using a disposable syringe and injection needle (26 G). On the day following the administration, the same administration was performed on 57 animals (non-recipient animals).
# Tumor diameters (major diameter, minor diameter) were measured 5 days after transplantation (not measured after grouping). Five days later, animals having a tumor diameter (major diameter) of about 5 mm were grouped by stratified randomization to obtain a nearly uniform distribution of mean tumor diameters (major diameters).
# For the CDDP administration group, a single-dose intraperitoneal administration (1000 μl) was performed using a disposable injection syringe and injection needle. […]
# The day of administration was taken as Day 0 after administration. On Days 3, 6, 9, 12, 15, 18, and 21 after administration, all animals had their tumor diameters measured, and tumor volume (major diameter×minor diameter×minor diameter÷2) was calculated.
compound,measurement,setting,value
"COc1cccc2c1C(=O)c1c(O)c3c(c(O)c1C2=O)C[C@@](O)(C(=O)CO)C[C@@H]3O[C@H]1C[C@H](N)[C@H](O)[C@H](C)O1 [ADM, adriamycin]",tumor suppressing effect,MB49 cells [1]; ADM alone (20 or 100 μg),a tumor suppressing effect was observed
same,tumor eradication,"MB49 cells [1]; ADM alone (20 or 100 μg), tumor diameter 7-8 mm",eradication was not observed
same,tumor volume,"MB49 cells [1]; G2: ADM 20 μg x3 into tumor, Day 0",128.4 mm^3
same,tumor volume,"MB49 cells [1]; G2: ADM 20 μg x3 into tumor, Day 5",303.2 mm^3
same,tumor volume,"MB49 cells [1]; G2: ADM 20 μg x3 into tumor, Day 7",330 mm^3
same,tumor volume,"MB49 cells [1]; G2: ADM 20 μg x3 into tumor, Day 9",324.9 mm^3
same,tumor volume,"MB49 cells [1]; G2: ADM 20 μg x3 into tumor, Day 12",331.74 mm^3
same,tumor volume,"MB49 cells [1]; G2: ADM 20 μg x3 into tumor, Day 15",443.36 mm^3
same,tumor volume,"MB49 cells [1]; G2: ADM 20 μg x3 into tumor, Day 19",773.88 mm^3
same,tumor volume,"MB49 cells [1]; G2: ADM 20 μg x3 into tumor, Day 21",1022.48 mm^3
same,tumor volume,"MB49 cells [1]; G3: ADM 100 μg x3 into tumor, Day 0",119 mm^3
same,tumor volume,"MB49 cells [1]; G3: ADM 100 μg x3 into tumor, Day 5",285.8 mm^3
same,tumor volume,"MB49 cells [1]; G3: ADM 100 μg x3 into tumor, Day 7",291.2 mm^3
same,tumor volume,"MB49 cells [1]; G3: ADM 100 μg x3 into tumor, Day 9",333.9 mm^3
same,tumor volume,"MB49 cells [1]; G3: ADM 100 μg x3 into tumor, Day 12",426.88 mm^3
same,tumor volume,"MB49 cells [1]; G3: ADM 100 μg x3 into tumor, Day 15",450.76 mm^3
same,tumor volume,"MB49 cells [1]; G3: ADM 100 μg x3 into tumor, Day 19",989.52 mm^3
same,tumor volume,"MB49 cells [1]; G3: ADM 100 μg x3 into tumor, Day 21",1220.44 mm^3
same,survival rate,[2]; ADM 0.004 μg/ml,60.1%
same,survival rate,[2]; ADM 0.008 μg/ml,54%
same,survival rate,[2]; ADM 0.063 μg/ml,34.9%
same,survival rate,[2]; ADM 0.125 μg/ml,27.6%
same,survival rate,[2]; ADM 0.25 μg/ml,22.6%
same,survival rate,[2]; ADM 0.5 μg/ml,17.2%
same,survival rate,[2]; ADM 1 μg/ml,11.7%
same,survival rate,[2]; ADM 2 μg/ml,6.7%
same,LD50 concentration,"[2]; MB49 cells, WST-8",0.008 µg/mL
same,LD90 concentration,"[2]; MB49 cells, WST-8",1 µg/mL
same,infiltration of MB49 cells into the bladder,"MB49 cells [3]; ADM 0.008 μg/ml, with or without HVJ-E 5000 HAU (Groups 1, 2)",all animals showed evidence of infiltration of MB49 cells
same,animals in which infiltration of MB49 cells could not be prevented,MB49 cells [3]; Group 3: ADM 1 μg/ml,80%
"[NH2][Pt]([NH2])([Cl])[Cl] [CDDP, cisplatin]",% specific Cr release,CT-26 cells,12.9%
same,order of regression effect,[4]; cell-derived HVJ-E study,"greater in the order of the physiological saline group, HVJ-E-alone administration group, and CDDP 1 mg/kg administration group"
same,tumor volume compared among groups,[4]; egg-derived HVJ-E study,no major difference was observed
same,pathological findings in tumor tissue (HE staining),CT-26 tumor tissue,tumor cell necrotic signs were observed over a wide range of the tumor tissue
same,mean tumor volume,[5],387 mm^3
same,mean tumor volume relative to control group as 100%,[5],23.2%
bleomycin hydrochloride [BLM],pathological findings in tumor tissue (HE staining),CT-26 tumor tissue,Generally similar findings
same,mean tumor volume,[5],1303 mm^3
same,mean tumor volume relative to control group as 100%,[5],80.0%
